Laboratory results published in ChEMBL document CHEMBL3779887, “Robenidine Analogues as Gram-Positive Antibacterial Agents” (J Med Chem, 2016).
Values after ≈ are worked out from the molar mass of the structure shown.

How the values were obtained:
Staphylococcus aureus [1] = assay: Antibacterial activity against methicillin-sensitive Staphylococcus aureus ATCC 29213 after 20 to 24 hrs in presence of 50% heat inactivated bovine serum
Staphylococcus aureus [2] = assay: Ratio of MBC for methicillin-sensitive Staphylococcus aureus ATCC 29213 to MIC90 for methicillin-sensitive Staphylococcus aureus ATCC 29213; type: functional
Pseudomonas aeruginosa = assay: Antibacterial activity against Pseudomonas aeruginosa ATCC 27853 after 20 to 24 hrs; type: functional
Staphylococcus aureus [3] = assay: Bactericidal activity against methicillin-sensitive Staphylococcus aureus ATCC 29213 assessed as log reduction in bacterial cell number at 8 times MIC after 8 hrs by time-kill curve analysis; type: functional
Escherichia coli = assay: Antibacterial activity against Escherichia coli ATCC 25922 after 20 to 24 hrs in presence of polymyxin B nonapeptide; type: functional
Staphylococcus aureus [4] = assay: Antibacterial activity against Staphylococcus aureus ATCC 29213 after 20 to 24 hrs in presence of 2% heat inactivated bovine serum; type: functional
Staphylococcus aureus [5] = assay: Antibacterial activity against methicillin-sensitive Staphylococcus aureus ATCC 49775 after 20 to 24 hrs; type: functional
[6] = Selectivity index, ratio of GI50 for human HepG2 cells to MIC50 for methicillin-sensitive Staphylococcus aureus clinical isolate; type: functional
[7] = Cytotoxicity against human HepG2 cells after 24 hrs by WST-1 based colorimetric assay; type: cell-based
[8] = Half life of compound in mouse liver microsomes; type: ADME
Staphylococcus aureus [9] = assay: Antibacterial activity against methicillin-sensitive Staphylococcus aureus ATCC 29213 after 20 to 24 hrs in presence of 50% heat inactivated bovine serum; type: functional
[10] = Solubility of the compound at pH 6.5; type: physicochemical; conditions: buffer
[11] = Metabolic stability in mouse liver microsomes assessed as compound loss after 60 mins; type: ADME; conditions: read-out: Drug degradation
[12] = Lipophilicity, logD of the compound at pH 3; type: physicochemical; conditions: buffer
Staphylococcus aureus [13] = assay: Bactericidal activity against methicillin-sensitive Staphylococcus aureus ATCC 49775 after 24 and 48 hrs; type: functional
Staphylococcus aureus [14] = assay: Antibacterial activity against methicillin-sensitive Staphylococcus aureus ATCC 6538 after 20 to 24 hrs in presence of 50% heat inactivated bovine serum; type: functional
Staphylococcus aureus [15] = assay: Bactericidal activity against methicillin-sensitive Staphylococcus aureus ATCC 29213 assessed as log reduction in bacterial cell number at 4 times MIC after 8 hrs by time-kill curve analysis; type: functional
Staphylococcus aureus [16] = assay: Antibacterial activity against methicillin-sensitive Staphylococcus aureus ATCC 29213 after 20 to 24 hrs in presence of 50% heat inactivated bovine serum; remark: listed apart in the source
Staphylococcus aureus [17] = assay: Antibacterial activity against methicillin-sensitive Staphylococcus aureus ATCC 29213 after 20 to 24 hrs; type: functional
[18] = Intrinsic clearance in mouse liver microsomes assessed per mg of protein; type: ADME; conditions: read-out: CLH

N=C(N/N=C/c1ccc(Cl)cc1)N/N=C/c1ccc(Cl)cc1 [ROBENIDINE]
MIC90 (Staphylococcus aureus [1]): > 250 µM
Ratio (Staphylococcus aureus [2]): 1
MIC (Pseudomonas aeruginosa): > 400 µM
Activity (Staphylococcus aureus [3]): >=4 log10CFU/ml
MIC90 (Escherichia coli): 21.6 µM
MIC90 (Staphylococcus aureus [4]): 43.1 µM
MIC90 (Staphylococcus aureus [5]): 5.4 µM (≈ 1.8 µg/mL)
Selectivity Index [6]: 2
GI50 at 24 h [7]: 25.4 µM
half-life [8]: > 4.12 h
MIC90 (Staphylococcus aureus [9]): > 250 µM
solubility [10]: < 1.6 µg/mL
metabolised at 1 h [11]: < 15%
logD [12]: 3.7
MBC (Staphylococcus aureus [13]): 5.4 µM (≈ 1.8 µg/mL)
MIC90 (Staphylococcus aureus [14]): > 250 µM
Activity (Staphylococcus aureus [15]): >=4 log10CFU/ml
MIC90 (Staphylococcus aureus [16]): > 250 µM
MIC90 (Staphylococcus aureus [17]): 5.4 µM (≈ 1.8 µg/mL)
microsomal CLint [18]: < 7 µL/min/mg
